Consider 7 compounds from patent US5045302A, “Ligands and cationic complexes thereof with technetium-99m” (priority 1988, dated 1991).

For data set [1] the following is noted: guinea pig, in vivo.
The conditions of data set [2]: rat, in vivo.
Data set [3] is described as follows: Plasma binding study (PD10 column), human plasma. The format is in vitro ADME. The following applies: for percent recovery of Tc99m activity: human, plasma; for binding to / interaction with human plasma: in words.
Protocol: (§1) 1 ml sample of guinea pig or human plasma or saline (control) were added to 2 ml Eppendorf tubes. To these were then added 100 ul aliquots of the ^99m Tc preparation being studied. Mixing was performed by inverting the tubes several times. A 50 ul sample was then taken for counting and the remainder of the sample (1050 ul) was quantitatively transferred to the top of the PD10 column. The sample was allowed to enter the column matrix and then washed in with 1.5 mls saline. Initially a 2.5 ml aliquot was collected for counting, (dead volume) subsequently 0.5 ml aliquots were collected until a total volume of 16 mls had been used to elute the column. […] Collected fractions were counted in a γ well counter and a graph plotted of percentage recovery was calculated from initial preloading sample and cumulative counts.
The nature of data set [4]: Rat biodistribution of Tc-99m complexes.
Data set [5] is described as follows: Protein binding, statement in words. The data set is classed as in vitro ADME.
The conditions of data set [6]: in vivo.
The conditions of data set [7]: saline.
Protocol: as §1
For data set [8] the following is noted: guinea pig, serum.
Protocol: as §1
The nature of data set [9]: Guinea pig biodistribution of Tc-99m complexes. The conditions noted are these: 60 min p.i.

Read-outs that look alike come from different tables or passages of the source.

For the compound `CCOCC[P+]1(CCOCC)CC[P+](CCOCC)(CCOCC)[Tc-3]12([Cl])([Cl])[P+](CCOCC)(CCOCC)CC[P+]2(CCOCC)CCOCC`, in data set [1], the “blood and liver clearance” value was “good”; the heart uptake result is listed as “good heart uptake”; the wash-out from heart result is “washes out of the respective hearts”. Moreover, in data set [1] (2 min), the Blood is 3.50 % Injected dose/organ, the Heart was 1.89 % Injected dose/organ, the “Heart/Blood Counts/Gram Ratio” value amounted to 12.72 and the “Heart/Liver Counts/Gram Ratio” value worked out at 2.13. Also, in data set [1] (2 min), the “Heart/Muscle Counts/Gram Ratio” value came to 4.48, the “Kidney + Urine” value is 6.98 % Injected dose/organ, the Liver was 13.74 % Injected dose/organ and the “Liver + GI” value was found to be 18.72 % Injected dose/organ. In [1] (2 min), this compound returned a Lung of 3.11 % Injected dose/organ and a Muscle of 61.65 % Injected dose/organ. Besides, in [1] (60 min), the Blood was determined as 0.58 % Injected dose/organ, the Heart is listed as 0.13 % Injected dose/organ, the “Heart/Blood Counts/Gram Ratio” value is 5.35 and the “Heart/Liver Counts/Gram Ratio” value came to 0.72. Besides, in [1] (60 min), the “Heart/Muscle Counts/Gram Ratio” value is on record as 1.13, the “Kidney + Urine” value stood at 3.20 % Injected dose/organ, the Liver was determined as 3.16 % Injected dose/organ and the “Liver + GI” value stood at 62.38 % Injected dose/organ. In [1] (60 min), this compound showed a Lung of 0.30 % Injected dose/organ and a Muscle of 15.16 % Injected dose/organ. For the same compound, in data set [2], the “blood and liver clearance” value is on record as “good”; the heart uptake result was “good heart uptake”; the wash-out from heart result is “washes out of the respective hearts”. For the same compound, in data set [2] (2 min), the Blood turned out to be 5.24 % Injected dose/organ, the Heart stood at 1.51 % Injected dose/organ, the “Heart/Blood Counts/Gram Ratio” value is 3.90 and the “Heart/Liver Counts/Gram Ratio” value is reported as 0.64. For the same compound, in [2] (2 min), the “Heart/Muscle Counts/Gram Ratio” value is given as 4.68, the “Kidney + Urine” value was 4.48 % Injected dose/organ, the Liver was 28.87 % Injected dose/organ and the “Liver + GI” value is reported as 41.13 % Injected dose/organ. In [2] (2 min), this compound displayed a Lung of 1.45 % Injected dose/organ and a Muscle of 34.92 % Injected dose/organ. Besides, in [2] (60 min), the Blood is listed as 0.71 % Injected dose/organ, the Heart amounted to 0.16 % Injected dose/organ, the “Heart/Blood Counts/Gram Ratio” value is listed as 3.09 and the “Heart/Liver Counts/Gram Ratio” value is recorded as 0.46. Besides, in [2] (60 min), the “Heart/Muscle Counts/Gram Ratio” value came to 1.41, the “Kidney + Urine” value came to 4.95 % Injected dose/organ, the Liver is 4.78 % Injected dose/organ and the “Liver + GI” value is reported as 61.34 % Injected dose/organ. In data set [2] (60 min), this compound displayed a Lung of 0.47 % Injected dose/organ and a Muscle of 11.68 % Injected dose/organ. For the same compound, in data set [3], the “percent recovery of Tc99m activity” value was 93.8% and the “binding to / interaction with human plasma” value is “possible slight interaction”.

As for `CCOCP(CCCP(COCC)COCC)COCC` [Compound 33], in data set [4] (2 min p.i.), the Blood is listed as 17.9 % Injected dose/organ, the Heart amounted to 0.50 % Injected dose/organ, the “Heart/Blood Counts/Gram Ratio” value is 0.43 and the “Heart/Liver Counts/Gram Ratio” value is recorded as 0.16. This compound also showed a Liver in [4] (2 min p.i.) of 39.4 % Injected dose/organ. Moreover, in data set [4] (60 min p.i.), the Blood worked out at 3.20 % Injected dose/organ, the Heart was 0.29 % Injected dose/organ, the “Heart/Blood Counts/Gram Ratio” value is reported as 1.3 and the “Heart/Liver Counts/Gram Ratio” value came out at 0.29. This compound returned a Liver in data set [4] (60 min p.i.) of 11.4 % Injected dose/organ.

Consider `CCOCCP(CCCP(CCOCC)CCOCC)CCOCC` [Compound 34], for which, in data set [4] (2 min p.i.), the Blood is 19.5 % Injected dose/organ, the Heart was determined as 0.41 % Injected dose/organ, the “Heart/Blood Counts/Gram Ratio” value is listed as 0.34 and the “Heart/Liver Counts/Gram Ratio” value was 0.22. The compound also gave a Liver in [4] (2 min p.i.) of 29.7 % Injected dose/organ. In addition, in data set [4] (60 min p.i.), the Blood is listed as 4.56 % Injected dose/organ, the Heart was determined as 0.16 % Injected dose/organ, the “Heart/Blood Counts/Gram Ratio” value amounted to 0.52 and the “Heart/Liver Counts/Gram Ratio” value stood at 0.21. The compound also came in with a Liver in [4] (60 min p.i.) of 10.9 % Injected dose/organ.

Consider `C1COC(CP(CCCP(CC2CCCO2)CC2CCCO2)CC2CCCO2)C1` (stereo not drawn) [Compound 35], for which, in [4] (2 min p.i.), the Blood was found to be 10.5 % Injected dose/organ, the Heart came to 0.59 % Injected dose/organ, the “Heart/Blood Counts/Gram Ratio” value stood at 0.88 and the “Heart/Liver Counts/Gram Ratio” value is 0.28. In data set [4] (2 min p.i.), this compound registered a Liver of 28.2 % Injected dose/organ. Moreover, in [4] (60 min p.i.), the Blood is 1.44 % Injected dose/organ, the Heart was found to be 0.32 % Injected dose/organ, the “Heart/Blood Counts/Gram Ratio” value came out at 3.8 and the “Heart/Liver Counts/Gram Ratio” value is 0.46. This compound also returned a Liver in [4] (60 min p.i.) of 10.7 % Injected dose/organ.

Consider `CCOCCP(CCOCC)CC(CP(CCOCC)CCOCC)OC` [Compound 36], for which, in data set [4] (2 min p.i.), the Blood is 10.8 % Injected dose/organ, the Heart was 1.05 % Injected dose/organ, the “Heart/Blood Counts/Gram Ratio” value came out at 1.45 and the “Heart/Liver Counts/Gram Ratio” value is reported as 0.73. The compound also returned a Liver in data set [4] (2 min p.i.) of 18.8 % Injected dose/organ. In addition, in data set [4] (60 min p.i.), the Blood came out at 2.18 % Injected dose/organ, the Heart stood at 0.73 % Injected dose/organ, the “Heart/Blood Counts/Gram Ratio” value came to 5.69 and the “Heart/Liver Counts/Gram Ratio” value came out at 1.62. In addition, the Liver in [4] (60 min p.i.) amounted to 6.64 % Injected dose/organ.

For the compound `CCOCCP(CCOCC)c1ccccc1P(CCOCC)CCOCC` [Compound 37], in [4] (2 min p.i.), the Blood amounted to 12.4 % Injected dose/organ, the Heart stood at 0.82 % Injected dose/organ, the “Heart/Blood Counts/Gram Ratio” value was determined as 0.99 and the “Heart/Liver Counts/Gram Ratio” value is listed as 0.35. The same compound returned a Liver in data set [4] (2 min p.i.) of 29.7 % Injected dose/organ. In addition, in [4] (60 min p.i.), the Blood was 3.25 % Injected dose/organ, the Heart turned out to be 0.54 % Injected dose/organ, the “Heart/Blood Counts/Gram Ratio” value was determined as 2.62 and the “Heart/Liver Counts/Gram Ratio” value is 0.63. Besides, in data set [4] (60 min p.i.), the Liver was found to be 12.0 % Injected dose/organ.

For the compound `CCOCC[P+]1(CCOCC)CC[P+](CCOCC)(CCOCC)[Tc-3]12(=[O])(=[O])[P+](CCOCC)(CCOCC)CC[P+]2(CCOCC)CCOCC` [[TcO2 (P53)2]^+], the protein binding result in data set [5] is “low protein binding”. The heart uptake result in data set [6] is on record as “good heart uptake”. In data set [1] (2 min), the Blood was 3.11 % Injected dose/organ, the Heart worked out at 1.33 % Injected dose/organ, the “Heart/Blood Counts/Gram Ratio” value stood at 10.9 and the “Heart/Liver Counts/Gram Ratio” value was 1.90. In [1] (2 min), the “Heart/Lung Counts/Gram Ratio” value was 1.2, the “Heart/Muscle Counts/Gram Ratio” value amounted to 6.12, the “Kidney + Urine” value is listed as 16.7 % Injected dose/organ and the Liver was determined as 11.6 % Injected dose/organ. In addition, in data set [1] (2 min), the “Liver + GI” value was 38.7 % Injected dose/organ, the Lung came out at 1.14 % Injected dose/organ and the Muscle is given as 30.0 % Injected dose/organ. In addition, in data set [1] (60 min), the Blood is on record as 0.41 % Injected dose/organ, the Heart was determined as 0.99 % Injected dose/organ, the “Heart/Blood Counts/Gram Ratio” value is given as 61.9 and the “Heart/Liver Counts/Gram Ratio” value came to 7.51. For the same compound, in [1] (60 min), the “Heart/Muscle Counts/Gram Ratio” value is listed as 4.10, the “Kidney + Urine” value is on record as 16.1 % Injected dose/organ, the Liver was determined as 2.13 % Injected dose/organ and the “Liver + GI” value came to 44.6 % Injected dose/organ. Also, in data set [1] (60 min), the Lung is 0.47 % Injected dose/organ and the Muscle stood at 43.4 % Injected dose/organ. In addition, in data set [2] (2 min), the Blood is listed as 2.25 % Injected dose/organ, the Brian was found to be 0.03 % Injected dose/organ, the Heart was determined as 1.66 % Injected dose/organ and the “Heart/Muscle Counts/Gram Ratio” value amounted to 5.94. Besides, in [2] (2 min), the “Kidney + Urine” value turned out to be 13.2 % Injected dose/organ, the Liver is 14.1 % Injected dose/organ, the “Liver + GI” value is 37.8 % Injected dose/organ and the Lung amounted to 1.44 % Injected dose/organ. This compound returned a Muscle in data set [2] (2 min) of 31.6 % Injected dose/organ. Also, in data set [2] (60 min), the Blood worked out at 0.28 % Injected dose/organ, the Brian is 0.02 % Injected dose/organ, the Heart is 1.68 % Injected dose/organ and the “Heart/Blood Counts/Gram Ratio” value worked out at 86.4. For the same compound, in [2] (60 min), the “Heart/Liver Counts/Gram Ratio” value is listed as 14.4, the “Heart/Lung Counts/Gram Ratio” value was 4.3, the “Heart/Muscle Counts/Gram Ratio” value stood at 5.74 and the “Kidney + Urine” value was determined as 9.29 % Injected dose/organ. Also, in [2] (60 min), the “Liver + GI” value turned out to be 42.5 % Injected dose/organ, the Lung is listed as 0.65 % Injected dose/organ and the Muscle was found to be 31.6 % Injected dose/organ. In [3], the “percent recovery of Tc99m activity” value was 65.23% and the “binding to / interaction with human plasma” value is “no significant binding”. Moreover, the “percent recovery of Tc99m activity” value in data set [7] is reported as 90.82%. Moreover, in data set [4] (2 min p.i.), the “Heart/Blood Counts/Gram Ratio” value was 10.5, the “Heart/Liver Counts/Gram Ratio” value is 1.52 and the “Heart/Lung Counts/Gram Ratio” value was found to be 2.0. The compound further displayed a Liver in data set [4] (60 min p.i.) of 1.62 % Injected dose/organ. Moreover, the “percent recovery of Tc99m activity” value in data set [8] turned out to be 90.34%. Moreover, the “Heart/Lung Counts/Gram Ratio” value in [9] is 2.0.
